Assay results reported in US5929039A, “Method for treating cardiac dysfunction and pharmaceutical compositions useful therefor” (Baker Medical Research Institute, priority 1993, dated 1999).
Like-named read-outs stand apart in the source and are kept apart here.

What was measured:
Ins(1,4,5)P3 release [1] = assay: Ins(1,4,5)P3 mass in isolated perfused rat hearts, 2 min reperfusion after 20 min global ischaemia (competitive binding assay); details: for Ins(1,4,5)P3 mass: control 200 ± 18
Description: (§1) Adult male sprague dawley rats 250-300 g were used. Where indicated, rats were treated with reserpine (5 mg/kg I.P. for 18 hrs prior to killing) to deplete endogenous noradrenaline stores.. Rats were heparinized 1 U/g I.P. 30 minutes prior to killing by decapitation. Hearts were rapidly excised and immediately chilled in ice-cold saline. Under ice-cold solution, hearts were cannulated via the ascending aorta as described by Langendorff and perfused retrogradely at a rate of 5 ml/min with HEPES-buffered Krebs solution equilibrated with 5%CO2 -95%O2 at 37° C. Initial perfusion was in a non-recirculating manner to remove internal blood. Hearts were allowed to warm up gradually and, when free of internal blood, transferred to a 37° C. water-jacketed organ bath containing carbogenated Krebs medium, and perfusion continued in a recirculating manner. Following a 15 minute equilibration period, hearts were labelled with [^3 H]-inositol, 2 μCi/ml for 2 h. Hearts were monitored throughout the labelling period for strong rhythmic beating.
(§2) Following labelling, the [^3 H]-inositol-containing medium was removed, and replaced with Krebs medium containing propranolol (10^-6 M) and lithium chloride (50 mM) to block β-adrenergic receptors and to inhibit InsP metabolism by InsP 1'-phosphatase respectively (20). Hearts were perfused with propranolol, LiCi solution for 10 minutes prior to ischaemia. Antagonists, when administered, were included in this 10 minute preincubation. Normothermic global ischaemia was induced by terminating perfusion for various times up to 30 minutes. Reperfusion was examined following a 20 minute ischaemic period by resuming perfusion at 5 ml/min. Reactions were terminated by freezing hearts in liquid N2 following excision at the atrioventricular junction. Frozen ventricles were weighed and inositol phosphates extracted as described below.
(§3) Inositol phosphates were extracted from ventricle samples in 3.5 ml ice-cold 5% trichloroacetic acid (TCA), 2.5 mM EDTA, 5 mM phytate solution, as described previously (21). Briefly, ventricles were homogenised with two 10 second passes of a "Polytron" homogenizer separated by 15 second periods on ice. Samples were homogenised further using a Potter-Elvejheim homogeniser followed by brief sonication. Homogenised samples were centrifuged (5000 rpm, 10 min, 4° C.) to remove TCA insoluble material. Supernatants were collected, and the remaining pellet re-extracted in 1.5 ml TCA, EDTA, phytate. Supernatants were pooled and freon, tri-n-ocylamine (1:1 v/v 0.75 ml:1 ml TCA solution) was added, mixed thoroughly, and phases separated by low speed centrifugation (2000 rpm, 10 min 4° C.). The resultant aqueous phase, containing inositol phosphates was collected and treated with proteinase K (50 μg/ml, 2 hr, 50° C.). This process was necessary to preserve the chromatography column. Treated samples were passed through a 1 ml Dowex-50 column (4% cross-linked 4-400 mesh size) and eluted with 1 ml water (22). Urea (0.05 M final) was added (23) and samples lyophilized prior to high performance liquid chromatography (HPLC) analysis. Recovery of inositol phosphates using this method was greater than 95% for each isomer, as estimated by addition of [^3 H]-labelled standards to extractions of unlabelled hearts.
Mass of Ins(1,4,5)P3 was measured using a competitive binding assay (Amersham TRK 1000) essentially as described previously (26). Ventricle samples were prepared as described above except for the omission of [^3 H]-label during the 2 hr perfusion of hearts prior to ischaemia, and for the use of 5 mm ATP instead of phytate in the extraction procedure.
Protein concentration was determined in aliquots of TCA pellet following InsP extraction using a modified Lowry method with Bovine Serum Albumin as a standard.
(§4) Values presented are mean ±SEM, for n=4 unless otherwise stated. Statistical analysis of results involved Students' unpaired "t-test" for all InsP data.

[2] = system: in situ perfused rat hearts; details: for Reperfusion-induced arrhythmias VF % incidence / Reperfusion-induced arrhythmias VT % incidence: control 83
Description: (§5) A model of in situ perfused rat hearts subjected to 20 minutes coronary artery occlusion to induce ischaemia, followed by reperfusion was used to investigate reperfusion-induced arrhythmias.
(§6) Rats (250-300 g) were anaesthetised (pentobarbitone 60 mg/kg, I.P.) and heparinised (200 U/rat I.V.) The thorax was then opened and a metal cannula (ID 1 mm) inserted and tied into the ascending aorta, to commence Langendorff perfusion in situ (31). The interval from opening the chest to commencing heart perfusion was between 50 and 70 seconds. The perfusate was Krebs buffer, with coronary flow controlled by a Ismatac peristaltic pump at a rate of 5 ml/g heart weight/min for the non-ischaemic perfusion. At this flow rate the coronary perfusion pressure was between 32-38 mmHg, measured by pressure transducer (Gould Statham model p23) connected to the sidearm of the perfusion line. Following aortic cancellation, pulmonary vessels were tied off. In some preparations, ventricular pressure was measured by inserting a Millar micro-tip transducer catheter into the left ventricular cavity via the apex. All parameters--coronary perfusion pressure, ventricular pressure, and epicardial ECG, were constantly recorded on a Grass model 7 polygraph. Two hearts were perfused and simultaneously studied.
(§7) A silk suture (4.0) was positioned loosely around the left coronary artery 2-3 mm from its origin. Two silk releasing rings were placed around the suture for subsequent release of occlusion. Successful occlusion of the artery, inducing regional ischaemia, was indicated by increases in coronary perfusion pressure of at least 30%. Perfusion pressure was adjusted to non-ischaemic perfusion levels during the ischaemic period.
(§8) Drugs were added to the perfusion via a Harvard Model 22 pump. The drug flow was less than 1% of perfusion flow to ensure constant perfusate parameters. Unless mentioned otherwise, the drugs were present 10 minutes before, and during the entire ischaemic and reperfusion periods.
(§9) Heart preparations were allowed to stabilise for at least 20 minutes prior to commencing studies. Following 10 minute drug incubation, the left coronary artery was ligated to induce local ischaemia, for a period of 20 minutes. At the end of this ischaemic period, the ligature was released and hearts perfused at pre-ischaemic flow for a period of 5 minutes. Ventricular arrhythmias, occurring during ischaemia or during the first 2 minutes of reperfusion were defined according to the Lambeth Conventions (32).
Incidence of arrhythmias was analysed using a .chi.^2 test, with n≥8 for each group.

[3] = system: [3H]-labelled inositol phosphate accumulation; assay: [3H]-labelled inositol phosphate accumulation in isolated perfused rat hearts under ischaemia and post-ischaemic reperfusion; details: for average inhibition of [3H]-labelled inositol phosphate accumulation: vs 2 min post-ischaemic reperfusion without neomycin
Description: as §1, §2, §3
(§10) Inositol phosphates were separated by an anion-exchange HPLC system using a Whatman Partisil 10μ SAX column in a Waters Radial Compression Unit, employing a complex ammonium phosphate gradient, pH 3.8 from 0-2 M as described previously (24). Inositol phosphates were detected and quantitated using an on-line […] (model CR, Radiomatic Instruments) All peaks were identified by comparison with commercial standards. Nucleotide standards AMP, ADP, and ATP were run with samples to assess column performance.
as §4

[4] = system: hearts from reserpinized rats; assay: Arrhythmic effect of thrombin under reperfusion conditions, perfused hearts from reserpinized rats; set-up: species or system rat; details: for VF% / VT%: n 9
Description: as §5, §6, §7, §8, §9
The finding that thrombin directly stimulated release of Ins(1,4,5)P3 in heart indicates the possibility that thrombin might cause arrhythmias directly via this mechanism. Experiments were performed using hearts from reserpinized rats so that arrhythmic events initiated by noradrenaline were eliminated. Reperfusion arrhythmias were not observed in hearts from reserpinized animals. […] Furthermore, these arrhythmias were inhibited by gentamicin, indicating a relationship to release of Ins(1,4,5)P3 (Table 2).

Ins(1,4,5)P3 release [5] = assay: Thrombin-stimulated release of Ins(1,4,5)P3 in heart tissue
[6] = system: inositol phosphate accumulation in heart tissue; assay: Inositol phosphate accumulation in healthy (normoxic) heart tissue; set-up: species or system rat; details: healthy heart tissue
Description: as §1, §3, §10

PI-PLC heart rep = assay: Inhibition of PI-PLC in hearts under reperfusion conditions; set-up: species or system rat
Description: as §1, §2
Mass of Ins(1,4,5)P3 was measured using a competitive binding assay (Amersham TRK 1000) essentially as described previously (26). […]

PI-PLC kidney cy = details: cytosolic enzyme; from the literature (35); cited from earlier work
PI-PLC kidney me = details: membrane enzyme; from the literature (35); cited from earlier work
[7] = 0.5 mM, 2 min reperfusion after 20 min global ischaemia
[8] = 5 mM, 2 min reperfusion after 20 min global ischaemia
[9] = hearts from reserpinized rats, no thrombin
[10] = 25 μg/kg I.P. 48 h prior to experimentation
[11] = thrombin 2 U/ml in perfusate, reserpinized hearts

NCCCNCCCCNCCCN [spermine]
inhibition of reperfusion-induced Ins(1,4,5)P3 release (Ins(1,4,5)P3 release [1]): inhibitory | Ins(1,4,5)P3 mass (Ins(1,4,5)P3 release [1]; [7]): 182 + 4 pmol/mg protein | Ins(1,4,5)P3 mass (Ins(1,4,5)P3 release [1]; [8]): 160 ± 9 pmol/mg protein | effect on reperfusion arrhythmias [2]: inhibited | Reperfusion-induced arrhythmias VF % incidence ([2]; 0.5 mM): 36% | Reperfusion-induced arrhythmias VT % incidence ([2]; 0.5 mM): 63% | Reperfusion-induced arrhythmias VF % incidence ([2]; 5 mM): 20% | Reperfusion-induced arrhythmias VT % incidence ([2]; 5 mM): 30%

COc1cc2nc(N3CCN(C(=O)c4ccco4)CC3)nc(N)c2cc1OC [prazosin]
2 minute reperfusion inositol phosphate response ([3]; 10 μM): inhibited | redistribution of [3H]-labelled inositol phosphates under ischaemic conditions ([3]; global ischaemia, α1 adrenoceptor blockade): unaffected

CN[C@@H]1C[C@H]2O[C@@](C)([C@@H]1OC)n1c3ccccc3c3c4c(c5c6ccccc6n2c5c31)C(=O)NC4 [staurosporine]
percentage incidence of reperfusion-induced arrhythmias vs untreated controls ([2]; 10^-7 M): did not significantly alter | Reperfusion-induced arrhythmias VF % incidence ([2]; .1 μM): 69% | Reperfusion-induced arrhythmias VT % incidence ([2]; .1 μM): 83%

COC(=O)[C@H]1[C@H]2C[C@@H]3c4[nH]c5cc(OC)ccc5c4CCN3C[C@H]2C[C@@H](OC(=O)c2cc(OC)c(OC)c(OC)c2)[C@@H]1OC [reserpine]
rapid accumulation of inositol phosphates at 2 minutes post-ischaemic reperfusion ([3]; prior reserpine treatment (5 mg/kg I.P. 18 hrs)): prevented | VF% [4, 9]: 0% | VT% [4, 9]: 44%

Pertussis toxin [PTX]
Ins(1,4,5)P3 mass (Ins(1,4,5)P3 release [1]; [10]): 128 ± 28 pmol/mg protein | Reperfusion-induced arrhythmias VF % incidence [2, 10]: 10% | Reperfusion-induced arrhythmias VT % incidence [2, 10]: 40%

thrombin
reperfusion arrhythmias ([4]; thrombin 2 U/ml added to perfusate, reserpinized hearts): high incidence | VF% [4, 11]: 67% | VT% [4, 11]: 89% | release of Ins(1,4,5)P3 in heart tissue (Ins(1,4,5)P3 release [5]): directly stimulates release

NC[C@H](O)c1ccc(O)c(O)c1 [noradrenaline]
release of [3H]-labelled Ins(1,4,5)P3 on reperfusion ([3]; 10^-4 M perfusion, reserpinized animals): reinstated

neomycin
Ins(1,4,5)P3 mass (Ins(1,4,5)P3 release [1]; 0.05 mM, 2 min reperfusion after 20 min global ischaemia, mean±SEM, 4 hearts): 184 ± 7 pmol/mg protein | Ins(1,4,5)P3 mass (Ins(1,4,5)P3 release [1]; [7]): 121 ± 11 pmol/mg protein | Ins(1,4,5)P3 mass (Ins(1,4,5)P3 release [1]; [8]): 104 ± 12 pmol/mg protein | inhibition of accumulation of [3H]-labelled inositol phosphates ([3]; 0.05 mM, added 10 min prior to ischaemia, 2 min reperfusion): did not significantly inhibit | average inhibition of [3H]-labelled inositol phosphate accumulation ([3]; 0.5 mM): 45% | average inhibition of [3H]-labelled inositol phosphate accumulation ([3]; 5 mM): 55% | increase in sensitivity of myocardial tissue to neomycin during post-ischaemic reperfusion ([3]; reperfusion vs healthy heart): more than 10 fold | effect on accumulations of Inositol phosphate1 and Inositol phosphate2 ([6]; 5 mM): without effect | reduction in accumulation of [3H]Ins(1,4,5)P3 ([6]; 5 mM): 20% | effect on inositol phosphate accumulation ([6]; concentrations lower than 5 mM): ineffective | rats showing both severe VT and VF throughout reperfusion ([2]; 0.05 mM): 6 out of 8 | Reperfusion-induced arrhythmias VF % incidence ([2]; 0.05 mM): 70% | Reperfusion-induced arrhythmias VT % incidence ([2]; 0.05 mM): 75% | rats exhibiting VT or VF on reperfusion ([2]; 0.5 mM): none of the 10 rats | heart rate and ventricular pressure ([2]; 0.5 mM, after 10 minute incubation prior to occlusion): not significantly differing from control | Reperfusion-induced arrhythmias VF % incidence ([2]; 0.5 mM): 0% | Reperfusion-induced arrhythmias VT % incidence ([2]; 0.5 mM): 0% | Reperfusion-induced arrhythmias VF % incidence ([2]; 5 mM): 0% | Reperfusion-induced arrhythmias VT % incidence ([2]; 5 mM): 0% | EC50 (PI-PLC heart rep): 400 µM | EC50 (PI-PLC kidney cy): 30 µM | EC50 (PI-PLC kidney me): 200 µM
